Laboratory results: patent US9458219B2, “Human insulin analogue and acylated derivative thereof” (Shanghai Hengrui Pharmaceutical Co., Ltd., priority 2011, dated 2016)

Legend:
[1] = system: rat models sufferring from diabetes (STZ); experiment: In vivo long-acting activity assay of insulin derivatives; set-up: species or system Sprague-Dawley (SD) rats; settings: s.c., Humulin R 0.04, Detemir 0.2, others 0.1 mg/kg
Procedure: The rats were fed in an environment of SPF level. […] 100 mg/kg STZ was intraperitoneally injected to establish rat models sufferring from diabetes. Two days later, fasting blood glucose values were measured. […] At the beginning of the experiment, rats were weigh, and the blood glucose levels were measured (cut off tails and the blood glucose levels were detected by using Roche Glucometer and the corresponding test strips, similarly hereafter). On the basis of blood glucose values, rats were randomly divided into groups, 43 rats per group. The drug to be used was prepared in required concentrations. After subcutaneous injection of drugs, blood glucose levels were measured at multiple time points. IP (Index of Prolongation) was calculated according to blood glucose level.

[2] = system: rat models sufferring from diabetes (STZ); experiment: In vivo long-acting activity assay of PEGylated insulin; set-up: species or system Sprague-Dawley (SD) rats; settings: for Blood glucose value (%): Humulin R 0.04, Detemir 0.2, PEG insulins 0.1 mg/kg; for AOC % / IP (Index of Prolongation): s.c.
Procedure: Sprague-Dawley (SD) rats, male, used in this experiment were purchased from SINO-BRITSH SIPPR/BK LAB. ANIMAL LTD., CO, License number: SCXK (Shanghai) 2008-0016, 18-20 g. The rats were fed in an environment of SPF level. ICR male mice were fed three days in a laboratory environment, at temperature of 20-25° C., and humidity of 40-60%. The mice were fasted for 8 hrs before the experiment. 100 mg/kg STZ was intraperitoneally injected to establish rat models sufferring from diabetes. Two days later, fasting blood glucose values were measured. […] At the beginning of the experiment, rats were weigh, and the blood glucose levels were measured (cut off tails and the blood glucose levels were detected by using Roche Glucometer and the corresponding test strips, similarly hereafter). On the basis of blood glucose values, rats were randomly divided into groups, 43 rats per group. The drug to be used was prepared in required concentrations. After subcutaneous injection of drugs, blood glucose levels were measured at multiple time points. IP (Index of Prolongation) was calculated according to blood glucose level.

[3] = Table 5, Humulin R 0.04, Detemir 0.2, PEG (20 kD) insulins 0.1 mg/kg
[4] = Table 6, Humulin R 0.04, Detemir 0.2, PEG (30/40 kD) insulins 0.1 mg/kg

Substance: Detemir
- Blood glucose level (%) ([1]; 0 h): 100.00%
- Blood glucose level (%) ([1]; 0.5 h): 72.21%
- Blood glucose level (%) ([1]; 1 h): 35.57%
- Blood glucose level (%) ([1]; 2 h): 14.45%
- Blood glucose level (%) ([1]; 4 h): 16.32%
- Blood glucose level (%) ([1]; 6 h): 23.80%
- Blood glucose level (%) ([1]; 8 h): 34.77%
- Blood glucose level (%) ([1]; 10 h): 51.42%
- Blood glucose level (%) ([1]; 12 h): 39.68%
- Blood glucose level (%) ([1]; 14 h): 58.06%
- Blood glucose level (%) ([1]; 16 h): 74.84%
- Blood glucose level (%) ([1]; 18 h): 91.67%
- Blood glucose level (%) ([1]; 20 h): 99.05%
- AOC [1]: 69.2
- IP (Index of Prolongation) [1]: 100
- Blood glucose value (%) ([2]; Table 5, 0 h): 100%
- Blood glucose value (%) ([2]; Table 5, 1 h): 96.63%
- Blood glucose value (%) ([2]; Table 5, 2 h): 57.24%
- Blood glucose value (%) ([2]; Table 5, 4 h): 32.49%
- Blood glucose value (%) ([2]; Table 5, 6 h): 40.98%
- Blood glucose value (%) ([2]; Table 5, 8 h): 86.94%
- Blood glucose value (%) ([2]; Table 5, 10 h): 112.66%
- Blood glucose value (%) ([2]; Table 5, 12 h): 127.52%
- AOC % [2, 3]: 7.39%
- IP (Index of Prolongation) [2, 3]: 100
- AOC % [2, 4]: 5.92%
- IP (Index of Prolongation) [2, 4]: 100
- Blood glucose value (%) ([2]; Table 6, time 0): 100.00%
- Blood glucose value (%) ([2]; Table 6, time 1): 104.15%
- Blood glucose value (%) ([2]; Table 6, time 2): 74.83%
- Blood glucose value (%) ([2]; Table 6, time 3): 46.46%
- Blood glucose value (%) ([2]; Table 6, time 4): 23.36%
- Blood glucose value (%) ([2]; Table 6, time 6): 17.11%
- Blood glucose value (%) ([2]; Table 6, time 8): 32.52%
- Blood glucose value (%) ([2]; Table 6, time 10): 94.89%
- Blood glucose value (%) ([2]; Table 6, time 12): 110.45%
